The experiment has as its target T1, SYK kinase (Homo sapiens, UniProt P43405).
T1 construct: purchased Invitrogen, Carlsbad
The experiment in a line: SYK assay (OMNIA Kinase Assay, Invitrogen). The settings on record: SYK Activities; 1 mM ATP, 10 μM Omnia Peptide Substrate Tyr 7, 30° C. In kind it is biochemical. The method, then:
In the assay OMNIA® KINASE ASSAY by Invitrogen Corporation (Carlsbad) the effect of invention of a compound on the phosphorylation is determined by measurement of fluorescence intensity of a chelation-enhanced fluorophore called SOX. Upon phosphorylation of the peptide by the kinase of interest, Mg2+ is chelated to form a bridge between the SOX moiety and the phosphate group that is transferred to the specific tyrosine on the peptide. The fluorescence intensity is directly proportional to the amount of peptide phosphorylation.
To the wells of an 384 well small volume plate (Greiner, Frickenhausen) are added (i) the compound under test in 5% DMSO/distilled water (2 μl), (ii) 16 μl of the master mix containing ATP, DTT, Kinase Reaction Buffer, Omina Peptide Substrate Tyr 7 resulting in a final concentration of 1 mM ATP, 0.2 mM DTT and 10 μM Peptide Substrate. The Master Mix and the assay plate was incubated to reaction temperature before the measurement (30° C.). The reaction was started with addition of (iii) 2 μl 4 μg/ml SYK kinase (Invitrogen, Carlsbad). During measurement fluorescence intensitiy readings were collected using a TECAN M1000 at a wavelength of λex 360/λem 485 nm every 30 s for 30 minutes. The reaction velocity was plotted versus the inhibitor concentration to determine the IC50 using XLFit 5.0 (IDBS, Guildford) to fit to a sigmoidal dose response curve.

Structures are written as SMILES. A value given as a limit tells only on which side of the number the result lay.

This is an account of results in US9637491B2, “Pyrazolo[4,3-D]pyrimidines as kinase inhibitors” (Origenis GmbH, priority 2012, dated 2017).

By IC50 is commonly meant the midpoint of a concentration-inhibition curve. Read a high IC50 as weaker potency in that assay.

In turn, `OCCN1CCN(c2ccc(Nc3nc(-c4c(F)cccc4F)nc4cn[nH]c34)cc2)CC1` [Example 501, 2-(4-(4-((5-(2,6-difluorophenyl)-1H-pyrazolo[4,3-d]pyrimidin-7-yl)amino)phenyl)piperazin-1-yl)ethan-1-ol] had a half-maximal inhibitory concentration (IC50) of 10 to 100 nM.
As for `O=C1OCCN1c1ccc(Nc2nc(-c3ccco3)nc3cn[nH]c23)cc1` [Example 115, 3-(4-((5-(furan-2-yl)-1H-pyrazolo[4,3-d]pyrimidin-7-yl)amino)phenyl)oxazolidin-2-one], the figure is 10 to 100 nM.
As for `c1nn(C2CC2)cc1Nc1nc(C2CCC2)nc2cn[nH]c12` [Example 267, 5-cyclobutyl-N-(1-cyclopropyl-1H-pyrazol-4-yl)-1H-pyrazolo[4,3-d]pyrimidin-7-amine], the figure is 10 to 100 nM.
In the case of `COCCn1cc(Nc2nc(-c3nc4ccccc4s3)nc3cn[nH]c23)cn1` [Example 456, 5-(benzo[d]thiazol-2-yl)-N-(1-(2-methoxyethyl)-1H-pyrazol-4-yl)-1H-pyrazolo[4,3-d]pyrimidin-7-amine] it was less than 10 nM; in that of `CN1CCC(n2cc(Nc3nc(-c4nccs4)nc4cn[nH]c34)cn2)CC1` [Example 535, N-(1-(1-methylpiperidin-4-yl)-1H-pyrazol-4-yl)-5-(thiazol-2-yl)-1H-pyrazolo[4,3-d]pyrimidin-7-amine], 10 to 100 nM.
Compound `CC(=O)N1CCC(n2cc(Nc3nc(-c4cccc(S(N)(=O)=O)c4)nc4cn[nH]c34)cn2)CC1` [Example 427, 3-(7-((1-(1-acetylpiperidin-4-yl)-1H-pyrazol-4-yl)amino)-1H-pyrazolo[4,3-d]pyrimidin-5-yl)benzenesulfonamide] returned an IC50 of 100 to 1000 nM.
As for `CC(C)c1nc(Nc2cnn(C3CCN(C)CC3)c2)c2[nH]ncc2n1` [Example 184, 5-isopropyl-N-(1-(1-methylpiperidin-4-yl)-1H-pyrazol-4-yl)-1H-pyrazolo[4,3-d]pyrimidin-7-amine], the figure is 100 to 1000 nM; as for `COc1ccc(Nc2nc(-c3ccoc3)nc3cn[nH]c23)cc1OC` [Example 95, N-(3,4-dimethoxyphenyl)-5-(furan-3-yl)-1H-pyrazolo[4,3-d]pyrimidin-7-amine], 100 to 1000 nM; as for `c1cc(-c2nc(Nc3ccc(N4CCOCC4)cc3)c3[nH]ncc3n2)on1` [Example 69, 5-(isoxazol-5-yl)-N-(4-morpholinophenyl)-1H-pyrazolo[4,3-d]pyrimidin-7-amine], less than 10 nM.
As for `CC(C)(O)Cn1cc(Nc2nc(-c3ccco3)nc3cn[nH]c23)cn1` [Example 369, 1-(4-((5-(furan-2-yl)-1H-pyrazolo[4,3-d]pyrimidin-7-yl)amino)-1H-pyrazol-1-yl)-2-methylpropan-2-ol], the figure is 100 to 1000 nM.
For the compound `CC(C)Cn1cc(Nc2nc(-c3cccs3)nc3cn[nH]c23)cn1` [Example 432, N-(1-isobutyl-1H-pyrazol-4-yl)-5-(thiophen-2-yl)-1H-pyrazolo[4,3-d]pyrimidin-7-amine], the half-maximal inhibitory concentration (IC50) was 10 to 100 nM.
As for `Cn1cc(-c2nc(Nc3ccc(N4CCOCC4)cc3)c3[nH]ncc3n2)cn1` [Example 121, 5-(1-methyl-1H-pyrazol-4-yl)-N-(4-morpholinophenyl)-1H-pyrazolo[4,3-d]pyrimidin-7-amine], the figure is 10 to 100 nM; as for `CC(C)n1cc(Nc2nc(-c3cccc(S(N)(=O)=O)c3)nc3cn[nH]c23)cn1` [Example 426, 3-(7-((1-isopropyl-1H-pyrazol-4-yl)amino)-1H-pyrazolo[4,3-d]pyrimidin-5-yl)benzenesulfonamide], 10 to 100 nM; as for `Cn1cc(-c2nc(Nc3cnn(C4CCOCC4)c3)c3[nH]ncc3n2)cn1` [Example 122, 5-(1-methyl-1H-pyrazol-4-yl)-N-(1-(tetrahydro-2H-pyran-4-yl)-1H-pyrazol-4-yl)-1H-pyrazolo[4,3-d]pyrimidin-7-amine], 10 to 100 nM.
As for `CC(C)(C#N)n1cc(Nc2nc(C3CCC3)nc3cn[nH]c23)cn1` [Example 225, 2-(4-((5-cyclobutyl-1H-pyrazolo[4,3-d]pyrimidin-7-yl)amino)-1H-pyrazol-1-yl)-2-methylpropanenitrile], the figure is 100 to 1000 nM.
